# Measured values: patent publication US7919268B2, “Reducing sample turbidity in measurement of enzymatic activity in cell lysates” (Roche Diagnostics Operations, Inc., priority 2005, dated 2011)
# Counter-ions that a name gives are not always drawn. Like-named read-outs stand apart in the source and are kept apart here.
# How the values were obtained:
# LDH [1] = type: biochemical, human; details: SDS 3% (v/v), sodium oxamate 15 mM, Triton X100 1% (v/v); for Absorption 0 min after adding stop reagent / Absorption 30 min after adding stop reagent / Absorption 120 min after adding stop reagent: 492 nm, lysate of 5000 cells, reaction time 5 min
# [2] = test system: human suspension cell line U 937; assay: Absorption of cells at 690 nm after treatment with different reagents; type: cell-based; details: reagent final concentration 1% (v/v)
# Protocol: The human suspension cell line U 937 was cultured in RPMI 1640 medium (Sigma Company) containing 10% foetal calf serum and 2 mM glutamine. The cells were then washed in fresh RPMI medium and adjusted to 25,000, 50,000 and 100,000 cells/100 μl. 100 μl thereof was in each case transferred to a 96-well standard microtitre plate. 50 μl RPMI medium containing the appropriate reagents was added by pipette to each of the cell solutions.
# The absorption of each well was measured at a wavelength of 690 nm after 5 min and 75 min incubation.
# LDH [3] = details: 0.2 M HCl, Triton X100 1% (v/v)
# Protocol: In another experiment HCl and NaOH were used as a stop reagent.
# For this purpose cell-free lysates each of 1000 cells were used in an LDH test with the components from the Cytotoxicity Detection Kit (LDH) containing the modified dye solution. After a reaction time of 30 min different stop reagents were added to these mixtures and the absorption was monitored at 492 nm (the absorption maximum of reduced INT).
# [4] = 492 nm, lysate of 1000 cells, reaction time 30 min
Compound,Absorption 0 min after adding stop reagent (LDH [1]),Absorption 30 min after adding stop reagent (LDH [1]),Absorption 120 min after adding stop reagent (LDH [1]),Termination of the LDH reaction (in words) (LDH [1]),Absorption after 5 min ([2]; 25 000 U 937 cells),Absorption after 75 min ([2]; 25 000 U 937 cells),Absorption after 5 min ([2]; 50 000 U 937 cells),Absorption after 75 min ([2]; 50 000 U 937 cells),Absorption after 5 min ([2]; 100 000 U 937 cells),Absorption after 75 min ([2]; 100 000 U 937 cells),Termination of the LDH reaction (in words) (LDH [3]),Absorption 0 min after adding stop reagent (LDH [3]; [4]),Absorption 30 min after adding stop reagent (LDH [3]; [4]),Absorption 120 min after adding stop reagent (LDH [3]; [4])
NC(=O)C(=O)[O-].[Na+] [sodium oxamate],0.113,0.127,0.179,stop the LDH reaction,–,–,–,–,–,–,–,–,–,–
"CCCCCCCCCCCC[N+](C)(C)C.[Br-] [DTAB, dodecyltrimethylammonium bromide]",–,–,–,–,0.005,0.006,0.012,0.011,0.024,0.021,–,–,–,–
octylphenoxypolyethoxyethanol [Triton X100],–,–,–,–,0.001,0.001,0.004,0.004,0.008,0.008,–,–,–,–
Cl [HCl],–,–,–,–,–,–,–,–,–,–,suitable stop reagent,0.275,0.271,0.261
CCCCCCCCCCCCN(C)CC(=O)O [N-laurylsarcosine],–,–,–,–,0.001,0.002,0.003,0.004,0.012,0.013,–,–,–,–
"CCCCCCCCCCCCCCCC[N+](C)(C)C.[Br-] [CTAB, cetyltrimethylammonium bromide]",–,–,–,–,0.006,0.003,0.031,0.014,0.025,0.018,–,–,–,–
"CCCCCCCCCCCCOS(=O)(=O)[O-].[Na+] [SDS, sodium dodecyl sulphate]",0.113,0.113,0.105,stop the LDH reaction,0.002,0.003,0.006,0.006,0.010,0.010,–,–,–,–
